Measured values reported in patent publication EP0497314A1, “Use of azapirones in attention deficit hyperactivity disorder” (Bristol-Myers Squibb Company, priority 1991, dated 1992).
Structures can show the parent of a compound that is named as a salt. Marks after values point to notes of the source that are not given here.

How the values were obtained:
[1] = tested on: fronto-occipital cortex of the cat; assay: Quantitative EEG, fronto-occipital cat cortex, subcutaneous administration; assay type: in vivo, cats; conditions: for EEG profile: cat cortex; for group percent change in electrical energy from pre-drug control, Δ band / mean change ± S.E. in electrical energy from pre-drug control, Δ band / group percent change in electrical energy from pre-drug control, α band / mean change ± S.E. in electrical energy from pre-drug control, α band / group percent change in electrical energy from pre-drug control, β band / mean change ± S.E. in electrical energy from pre-drug control, β band / group percent change in electrical energy from pre-drug control, γ band / mean change ± S.E. in electrical energy from pre-drug control, γ band / group percent change in electrical energy from pre-drug control, θ band / mean change ± S.E. in electrical energy from pre-drug control, θ band: fronto-occipital cat cortex; for group percent change in electrical energy from pre-drug control, α band / mean change ± S.E. in electrical energy from pre-drug control, α band: α= 7-13 Hz; for group percent change in electrical energy from pre-drug control, β band / mean change ± S.E. in electrical energy from pre-drug control, β band: β= 13-25 Hz; for group percent change in electrical energy from pre-drug control, γ band / mean change ± S.E. in electrical energy from pre-drug control, γ band: γ= 25-40 Hz; for group percent change in electrical energy from pre-drug control, θ band / mean change ± S.E. in electrical energy from pre-drug control, θ band: θ= 3.5-7.0 Hz
How it was run: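 Adult female mongrel cats (n=6 per group) with implanted electrodes were recorded while held in restraining bags, with EEG filtered into Δ, ϑ, α, β and γ bands and integrated as energy counts. Drugs were given subcutaneously in saline, with doses calculated as free base, and recording started 30 min post-injection. Changes from each animal's pre-treatment control were tested by paired Student t-test (P≦0.05).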

rabbit cortex = assay: Quantitative EEG, rabbit cortex, intravenous administration; assay type: in vivo, rabbits; conditions: for group percent change in electrical energy from pre-drug control, Δ band / mean change ± S.E. in electrical energy from pre-drug control, Δ band: Δ = 0.5-3.5 Hz; for group percent change in electrical energy from pre-drug control, α band / mean change ± S.E. in electrical energy from pre-drug control, α band: α= 7-13 Hz; for group percent change in electrical energy from pre-drug control, β band / mean change ± S.E. in electrical energy from pre-drug control, β band: β= 13-25 Hz; for group percent change in electrical energy from pre-drug control, γ band / mean change ± S.E. in electrical energy from pre-drug control, γ band: γ= 25-40 Hz; for group percent change in electrical energy from pre-drug control, θ band / mean change ± S.E. in electrical energy from pre-drug control, θ band: θ= 3.5-7.0 Hz
How it was run: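 Restrained rabbits with cortical leads had EEG split into Δ, ϑ, α, β and γ bands and integrated over 1 h from the moment of i.v. injection, in saline, dosed as free base. Counts were compared with each animal's own pretreatment control by paired t-test (p≦0.05). Doses were reduced geometrically to a no-effect level.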

[2] = tested on: attention deficit hyperactivity disorder; assay: Treatment of children with attention deficit hyperactivity disorder (Examples 1 and 2); assay type: in vivo, child
Experimental: Buspirone is administered to a person, who has been identified by a clinician as having the symptoms associated with attention deficit hyperactivity disorder. During treatment, the child received […] of buspirone twice a day.
Buspirone is administered to a person, who has been identified by a clinician as having the symptoms associated with attention deficit hyperactivity disorder. During the treatment, the child received […] of buspirone three times a day.

[3] = tested on: evoked electrographic activity; conditions: limited number of cats; John, et al, 1973; cited from earlier work
[4] = Δ = 0.05-35 Hz, 0.125 mg/kg free base s.c.
[5] = Δ = 0.05-35 Hz, 0.5 mg/kg free base s.c.
[6] = Δ = 0.5-3.5 Hz, 0.25 mg/kg free base s.c.
[7] = Δ = 0.5-3.5 Hz, 2.0 mg/kg free base s.c.
[8] = Δ = 0.5-3.5 Hz, 8.0 mg/kg free base s.c.
[9] = rabbit cortex, 0.25 mg/kg free base i.v.
[10] = rabbit cortex, 0.50 mg/kg free base i.v.
[11] = child with symptoms of attention deficit hyperactivity disorder, 5 mg/kg twice a day

Compound: O=C1CC2(CCCC2)CC(=O)N1CCCCN1CCN(c2ncccn2)CC1 [Buspirone HCl, buspirone hydrochloride]
- minimal effective dose ([1]; Felis catus, sc, fronto-occipital cat cortex EEG, dose of free base, read-out: the minimum dose required to produce the EEG profile characteristic of that particular drug): 0.25 mg/kg
- doses required to produce the combined antipsychotic-stimulant EEG profile ([1]; cat cortex EEG, s.c.): at least twice that of thioridazine and chlorpromazine
- EEG profile ([1]; 8.0 mg/kg dose, s.c.): causes an increase in electrical "power" in the lowest frequency bands
- EEG profile ([1]; higher dose (2.0 and 8.0 mg/kg, s.c.)): elicit a profile which deviates from that produced by the stimulants
- the no-effect dose ([1]; fronto-occipital cat cortex EEG, dose of free base): 0.125† mg/kg, s.c.
- group percent change in electrical energy from pre-drug control, Δ band [1, 4]: -21%
- mean change ± S.E. in electrical energy from pre-drug control, Δ band [1, 4]: -46 ± 27 instrument counts
- group percent change in electrical energy from pre-drug control, Δ band [1, 5]: -14%
- mean change ± S.E. in electrical energy from pre-drug control, Δ band [1, 5]: -31 ± 18 instrument counts
- group percent change in electrical energy from pre-drug control, Δ band [1, 6]: +5%
- mean change ± S.E. in electrical energy from pre-drug control, Δ band [1, 6]: +10 ± 8 instrument counts
- group percent change in electrical energy from pre-drug control, Δ band [1, 7]: +15%
- mean change ± S.E. in electrical energy from pre-drug control, Δ band [1, 7]: +30 ± 22 instrument counts
- group percent change in electrical energy from pre-drug control, Δ band [1, 8]: +55%
- mean change ± S.E. in electrical energy from pre-drug control, Δ band [1, 8]: +89 ± 29 instrument counts
- group percent change in electrical energy from pre-drug control, α band ([1]; 0.125 mg/kg free base s.c.): -18%
- mean change ± S.E. in electrical energy from pre-drug control, α band ([1]; 0.125 mg/kg free base s.c.): -23 ± 12 instrument counts
- group percent change in electrical energy from pre-drug control, α band ([1]; 0.25 mg/kg free base s.c.): -26%
- mean change ± S.E. in electrical energy from pre-drug control, α band ([1]; 0.25 mg/kg free base s.c.): -35 ± 6 instrument counts
- group percent change in electrical energy from pre-drug control, α band ([1]; 0.5 mg/kg free base s.c.): -39%
- mean change ± S.E. in electrical energy from pre-drug control, α band ([1]; 0.5 mg/kg free base s.c.): -47 ± 12 instrument counts
- group percent change in electrical energy from pre-drug control, α band ([1]; 2.0 mg/kg free base s.c.): -15%
- mean change ± S.E. in electrical energy from pre-drug control, α band ([1]; 2.0 mg/kg free base s.c.): -20 ± 14 instrument counts
- group percent change in electrical energy from pre-drug control, α band ([1]; 8.0 mg/kg free base s.c.): -6%
- mean change ± S.E. in electrical energy from pre-drug control, α band ([1]; 8.0 mg/kg free base s.c.): -5 ± 14 instrument counts
- group percent change in electrical energy from pre-drug control, β band ([1]; 0.125 mg/kg free base s.c.): -6%
- mean change ± S.E. in electrical energy from pre-drug control, β band ([1]; 0.125 mg/kg free base s.c.): -6 ± 4 instrument counts
- group percent change in electrical energy from pre-drug control, β band ([1]; 0.25 mg/kg free base s.c.): -17%
- mean change ± S.E. in electrical energy from pre-drug control, β band ([1]; 0.25 mg/kg free base s.c.): -24 ± 5 instrument counts
- group percent change in electrical energy from pre-drug control, β band ([1]; 0.5 mg/kg free base s.c.): -23%
- mean change ± S.E. in electrical energy from pre-drug control, β band ([1]; 0.5 mg/kg free base s.c.): -24 ± 3 instrument counts
- group percent change in electrical energy from pre-drug control, β band ([1]; 2.0 mg/kg free base s.c.): -24%
- mean change ± S.E. in electrical energy from pre-drug control, β band ([1]; 2.0 mg/kg free base s.c.): -33 ± 8 instrument counts
- group percent change in electrical energy from pre-drug control, β band ([1]; 8.0 mg/kg free base s.c.): -21%
- mean change ± S.E. in electrical energy from pre-drug control, β band ([1]; 8.0 mg/kg free base s.c.): -22 ± 7 instrument counts
- group percent change in electrical energy from pre-drug control, γ band ([1]; 0.125 mg/kg free base s.c.): +5%
- mean change ± S.E. in electrical energy from pre-drug control, γ band ([1]; 0.125 mg/kg free base s.c.): +4 ± 3 instrument counts
- group percent change in electrical energy from pre-drug control, γ band ([1]; 0.25 mg/kg free base s.c.): 0%
- mean change ± S.E. in electrical energy from pre-drug control, γ band ([1]; 0.25 mg/kg free base s.c.): -1 ± 3 instrument counts
- group percent change in electrical energy from pre-drug control, γ band ([1]; 0.5 mg/kg free base s.c.): -5%
- mean change ± S.E. in electrical energy from pre-drug control, γ band ([1]; 0.5 mg/kg free base s.c.): -4 ± 4 instrument counts
- group percent change in electrical energy from pre-drug control, γ band ([1]; 2.0 mg/kg free base s.c.): -9%
- mean change ± S.E. in electrical energy from pre-drug control, γ band ([1]; 2.0 mg/kg free base s.c.): -10 ± 3 instrument counts
- group percent change in electrical energy from pre-drug control, γ band ([1]; 8.0 mg/kg free base s.c.): -3%
- mean change ± S.E. in electrical energy from pre-drug control, γ band ([1]; 8.0 mg/kg free base s.c.): -2 ± 3 instrument counts
- group percent change in electrical energy from pre-drug control, θ band ([1]; 0.125 mg/kg free base s.c.): -22%
- mean change ± S.E. in electrical energy from pre-drug control, θ band ([1]; 0.125 mg/kg free base s.c.): -32 ± 16 instrument counts
- group percent change in electrical energy from pre-drug control, θ band ([1]; 0.25 mg/kg free base s.c.): -16%
- mean change ± S.E. in electrical energy from pre-drug control, θ band ([1]; 0.25 mg/kg free base s.c.): -21 ± 6 instrument counts
- group percent change in electrical energy from pre-drug control, θ band ([1]; 0.5 mg/kg free base s.c.): -32%
- mean change ± S.E. in electrical energy from pre-drug control, θ band ([1]; 0.5 mg/kg free base s.c.): -46 ± 14 instrument counts
- group percent change in electrical energy from pre-drug control, θ band ([1]; 2.0 mg/kg free base s.c.): +13%
- mean change ± S.E. in electrical energy from pre-drug control, θ band ([1]; 2.0 mg/kg free base s.c.): +17 ± 15 instrument counts
- group percent change in electrical energy from pre-drug control, θ band ([1]; 8.0 mg/kg free base s.c.): +34%
- mean change ± S.E. in electrical energy from pre-drug control, θ band ([1]; 8.0 mg/kg free base s.c.): +35 ± 15 instrument counts
- minimal effective dose (rabbit cortex; Oryctolagus cuniculus, iv, rabbit cortex EEG, dose of free base, read-out: the minimum dose required to produce the EEG profile characteristic of that particular drug): 0.5 mg/kg
- the no-effect dose (rabbit cortex; rabbit cortex EEG, dose of free base): 0.25† mg/kg, i.v.
- EEG profile (rabbit cortex; rabbit cortex, i.v.): shares a component of stimulation similar to that of methylphenidate and dextroamphetamine
- group percent change in electrical energy from pre-drug control, Δ band (rabbit cortex; [9]): 0%
- mean change ± S.E. in electrical energy from pre-drug control, Δ band (rabbit cortex; [9]): -1 ± 18 instrument counts
- group percent change in electrical energy from pre-drug control, Δ band (rabbit cortex; [10]): -34%
- mean change ± S.E. in electrical energy from pre-drug control, Δ band (rabbit cortex; [10]): -114 ± 25 instrument counts
- group percent change in electrical energy from pre-drug control, α band (rabbit cortex; [9]): -1%
- mean change ± S.E. in electrical energy from pre-drug control, α band (rabbit cortex; [9]): -2 ± 12 instrument counts
- group percent change in electrical energy from pre-drug control, α band (rabbit cortex; [10]): -32%
- mean change ± S.E. in electrical energy from pre-drug control, α band (rabbit cortex; [10]): -70 ± 13 instrument counts
- group percent change in electrical energy from pre-drug control, β band (rabbit cortex; [9]): -4%
- mean change ± S.E. in electrical energy from pre-drug control, β band (rabbit cortex; [9]): -5 ± 7 instrument counts
- group percent change in electrical energy from pre-drug control, β band (rabbit cortex; [10]): -28%
- mean change ± S.E. in electrical energy from pre-drug control, β band (rabbit cortex; [10]): -47 ± 10 instrument counts
- group percent change in electrical energy from pre-drug control, γ band (rabbit cortex; [9]): -5%
- mean change ± S.E. in electrical energy from pre-drug control, γ band (rabbit cortex; [9]): -5 ± 2 instrument counts
- group percent change in electrical energy from pre-drug control, γ band (rabbit cortex; [10]): -14%
- mean change ± S.E. in electrical energy from pre-drug control, γ band (rabbit cortex; [10]): -17 ± 3 instrument counts
- group percent change in electrical energy from pre-drug control, θ band (rabbit cortex; [9]): -5%
- mean change ± S.E. in electrical energy from pre-drug control, θ band (rabbit cortex; [9]): -10 ± 14 instrument counts
- group percent change in electrical energy from pre-drug control, θ band (rabbit cortex; [10]): -35%
- mean change ± S.E. in electrical energy from pre-drug control, θ band (rabbit cortex; [10]): -86 ± 11 instrument counts
- clinical response during and after treatment [2, 11]: spectacular and very fast improvement
- sleep disturbance [2, 11]: no sleep disturbance
- clinical response during and after treatment ([2]; with symptoms of attention deficit hyperactivity disorder, 5 mg/kg three times a day): excellent response
- effect on evoked electrographic activity [3]: possessed properties similar to both chlorpromazine and methamphetamine
